Test results taken from ChEMBL document CHEMBL5291721, “A preclinical secondary pharmacology resource illuminates target-adverse drug reaction associations of marketed drugs” (Nat Commun, 2023).

How the values were obtained:
[1] = target: Beta-2 adrenergic receptor (Homo sapiens, UniProt P07550)
B2 bradykinin receptor = target: T1, B2 bradykinin receptor (Homo sapiens, UniProt P30411)
T1 sequence (P30411 whole entry): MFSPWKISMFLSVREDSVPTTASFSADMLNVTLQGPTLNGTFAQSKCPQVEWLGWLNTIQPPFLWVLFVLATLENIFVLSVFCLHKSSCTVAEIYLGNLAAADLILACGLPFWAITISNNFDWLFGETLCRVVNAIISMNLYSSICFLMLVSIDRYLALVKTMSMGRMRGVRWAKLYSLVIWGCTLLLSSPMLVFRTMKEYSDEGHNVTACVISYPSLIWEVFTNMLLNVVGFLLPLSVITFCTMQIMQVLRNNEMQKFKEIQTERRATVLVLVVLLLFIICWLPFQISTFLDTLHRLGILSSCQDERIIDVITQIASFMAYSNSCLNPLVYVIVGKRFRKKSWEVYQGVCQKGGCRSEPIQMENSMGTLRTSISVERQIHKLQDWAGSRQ

[2] = target: T2, Muscarinic acetylcholine receptor M2 (Homo sapiens, UniProt P08172); format: functional, cell-based
T2 sequence (P08172 whole entry): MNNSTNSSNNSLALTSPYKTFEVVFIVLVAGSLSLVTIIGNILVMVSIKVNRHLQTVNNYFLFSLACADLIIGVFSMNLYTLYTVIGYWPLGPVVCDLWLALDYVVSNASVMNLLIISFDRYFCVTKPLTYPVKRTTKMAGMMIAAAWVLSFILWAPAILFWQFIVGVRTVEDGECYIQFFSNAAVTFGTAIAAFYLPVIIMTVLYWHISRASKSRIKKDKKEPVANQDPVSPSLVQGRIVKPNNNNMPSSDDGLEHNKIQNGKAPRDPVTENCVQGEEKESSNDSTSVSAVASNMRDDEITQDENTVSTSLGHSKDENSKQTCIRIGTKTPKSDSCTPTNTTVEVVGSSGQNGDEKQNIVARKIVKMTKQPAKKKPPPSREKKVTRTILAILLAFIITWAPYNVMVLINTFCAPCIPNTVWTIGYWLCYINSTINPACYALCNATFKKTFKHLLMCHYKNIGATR

[3] = target: Glutamate receptor ionotropic, NMDA 1 (Rattus norvegicus, UniProt P35439)
[4] = target: 5-hydroxytryptamine receptor 2B (Homo sapiens, UniProt P41595); format: functional, cell-based
[5] = target: T3, 5-hydroxytryptamine receptor 2C (Homo sapiens, UniProt P28335)
T3 sequence (P28335 whole entry): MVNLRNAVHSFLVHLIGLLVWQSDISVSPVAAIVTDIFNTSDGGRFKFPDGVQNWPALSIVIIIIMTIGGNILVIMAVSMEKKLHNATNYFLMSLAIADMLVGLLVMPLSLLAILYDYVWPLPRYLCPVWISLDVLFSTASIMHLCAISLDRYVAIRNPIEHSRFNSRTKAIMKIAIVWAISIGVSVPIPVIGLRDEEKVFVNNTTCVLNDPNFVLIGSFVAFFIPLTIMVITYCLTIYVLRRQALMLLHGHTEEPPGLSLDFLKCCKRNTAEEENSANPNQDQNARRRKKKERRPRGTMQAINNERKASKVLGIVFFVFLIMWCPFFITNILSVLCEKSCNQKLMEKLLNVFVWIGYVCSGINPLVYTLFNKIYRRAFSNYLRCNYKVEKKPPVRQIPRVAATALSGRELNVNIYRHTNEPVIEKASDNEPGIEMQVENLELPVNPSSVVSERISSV

Glucocorticoid receptor = target: T4, Glucocorticoid receptor (Homo sapiens, UniProt P04150)
T4 sequence (P04150 whole entry): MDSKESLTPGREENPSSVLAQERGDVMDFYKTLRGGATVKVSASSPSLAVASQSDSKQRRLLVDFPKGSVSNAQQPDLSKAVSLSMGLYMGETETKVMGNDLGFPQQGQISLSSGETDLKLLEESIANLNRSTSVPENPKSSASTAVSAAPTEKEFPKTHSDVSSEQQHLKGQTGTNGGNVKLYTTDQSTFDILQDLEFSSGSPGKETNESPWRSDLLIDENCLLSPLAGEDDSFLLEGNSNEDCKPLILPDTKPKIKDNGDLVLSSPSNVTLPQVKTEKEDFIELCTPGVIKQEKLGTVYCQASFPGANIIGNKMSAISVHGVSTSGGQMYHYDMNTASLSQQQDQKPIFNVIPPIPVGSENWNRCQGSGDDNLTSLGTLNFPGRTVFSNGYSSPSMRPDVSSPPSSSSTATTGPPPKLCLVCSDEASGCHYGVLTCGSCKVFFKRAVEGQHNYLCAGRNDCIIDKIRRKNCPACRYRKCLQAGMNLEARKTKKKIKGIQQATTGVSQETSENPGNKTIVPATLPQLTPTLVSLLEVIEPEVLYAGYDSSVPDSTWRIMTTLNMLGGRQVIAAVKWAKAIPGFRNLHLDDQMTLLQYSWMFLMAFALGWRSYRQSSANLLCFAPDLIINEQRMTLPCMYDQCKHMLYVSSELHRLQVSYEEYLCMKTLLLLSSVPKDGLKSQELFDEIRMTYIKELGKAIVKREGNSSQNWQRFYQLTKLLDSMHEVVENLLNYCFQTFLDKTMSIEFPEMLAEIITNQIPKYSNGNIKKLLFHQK

[6] = target: Kappa-type opioid receptor (Homo sapiens, UniProt P41145)
Thromboxane A2 receptor = target: T5, Thromboxane A2 receptor (Homo sapiens, UniProt P21731)
T5 sequence (P21731 whole entry): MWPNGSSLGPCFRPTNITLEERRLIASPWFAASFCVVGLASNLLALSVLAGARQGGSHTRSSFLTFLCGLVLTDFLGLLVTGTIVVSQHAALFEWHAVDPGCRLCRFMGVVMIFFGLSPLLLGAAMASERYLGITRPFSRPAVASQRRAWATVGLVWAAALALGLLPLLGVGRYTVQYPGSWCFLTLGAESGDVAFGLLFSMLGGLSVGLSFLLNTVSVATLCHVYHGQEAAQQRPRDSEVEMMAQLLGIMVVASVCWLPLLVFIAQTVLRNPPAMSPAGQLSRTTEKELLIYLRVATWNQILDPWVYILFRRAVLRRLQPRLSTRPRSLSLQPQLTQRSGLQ

[7] = target: Sodium-dependent dopamine transporter (Homo sapiens, UniProt Q01959)
[8] = target: cGMP-inhibited 3',5'-cyclic phosphodiesterase 3A (Homo sapiens, UniProt Q14432); format: functional
Histamine H3 receptor = Histamine H3 receptor (Homo sapiens, UniProt Q9Y5N1)
Also: assay procedure not described here.

Sequence of Beta-2 adrenergic receptor (P07550 whole entry): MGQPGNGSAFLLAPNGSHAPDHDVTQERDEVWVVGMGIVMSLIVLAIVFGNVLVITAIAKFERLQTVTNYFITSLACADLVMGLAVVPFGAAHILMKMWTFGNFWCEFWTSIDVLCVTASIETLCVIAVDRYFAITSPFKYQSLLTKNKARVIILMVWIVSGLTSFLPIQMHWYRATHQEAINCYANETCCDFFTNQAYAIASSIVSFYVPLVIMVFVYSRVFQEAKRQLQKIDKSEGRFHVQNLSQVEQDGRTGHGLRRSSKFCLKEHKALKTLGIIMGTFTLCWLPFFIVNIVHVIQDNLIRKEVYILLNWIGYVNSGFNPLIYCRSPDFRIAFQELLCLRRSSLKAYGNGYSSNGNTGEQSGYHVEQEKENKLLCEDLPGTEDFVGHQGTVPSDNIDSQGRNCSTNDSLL
Sequence of Kappa-type opioid receptor (P41145 whole entry): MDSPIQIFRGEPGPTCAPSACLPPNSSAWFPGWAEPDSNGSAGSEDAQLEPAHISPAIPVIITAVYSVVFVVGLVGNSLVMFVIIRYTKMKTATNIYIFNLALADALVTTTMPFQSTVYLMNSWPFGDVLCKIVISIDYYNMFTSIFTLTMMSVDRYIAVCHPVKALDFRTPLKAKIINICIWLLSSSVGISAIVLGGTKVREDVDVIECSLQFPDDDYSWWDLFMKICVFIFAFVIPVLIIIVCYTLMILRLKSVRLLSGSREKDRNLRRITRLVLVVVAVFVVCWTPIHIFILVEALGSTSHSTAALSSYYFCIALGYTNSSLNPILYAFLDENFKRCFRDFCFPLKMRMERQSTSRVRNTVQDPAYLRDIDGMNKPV
Sequence of 5-hydroxytryptamine receptor 2B (P41595 whole entry): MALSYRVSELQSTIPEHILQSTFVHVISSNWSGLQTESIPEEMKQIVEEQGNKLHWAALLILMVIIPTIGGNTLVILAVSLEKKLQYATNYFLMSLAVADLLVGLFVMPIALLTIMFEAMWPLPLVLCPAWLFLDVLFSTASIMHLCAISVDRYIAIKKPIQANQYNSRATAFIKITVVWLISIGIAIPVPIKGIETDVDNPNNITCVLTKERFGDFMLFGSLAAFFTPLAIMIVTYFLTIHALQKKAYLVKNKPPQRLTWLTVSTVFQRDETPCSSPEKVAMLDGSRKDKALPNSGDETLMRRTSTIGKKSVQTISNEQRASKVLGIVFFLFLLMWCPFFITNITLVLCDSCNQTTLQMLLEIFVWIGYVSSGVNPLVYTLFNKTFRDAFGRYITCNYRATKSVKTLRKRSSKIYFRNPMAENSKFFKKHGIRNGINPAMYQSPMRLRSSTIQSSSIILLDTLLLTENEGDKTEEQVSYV
Sequence of Sodium-dependent dopamine transporter (Q01959 whole entry): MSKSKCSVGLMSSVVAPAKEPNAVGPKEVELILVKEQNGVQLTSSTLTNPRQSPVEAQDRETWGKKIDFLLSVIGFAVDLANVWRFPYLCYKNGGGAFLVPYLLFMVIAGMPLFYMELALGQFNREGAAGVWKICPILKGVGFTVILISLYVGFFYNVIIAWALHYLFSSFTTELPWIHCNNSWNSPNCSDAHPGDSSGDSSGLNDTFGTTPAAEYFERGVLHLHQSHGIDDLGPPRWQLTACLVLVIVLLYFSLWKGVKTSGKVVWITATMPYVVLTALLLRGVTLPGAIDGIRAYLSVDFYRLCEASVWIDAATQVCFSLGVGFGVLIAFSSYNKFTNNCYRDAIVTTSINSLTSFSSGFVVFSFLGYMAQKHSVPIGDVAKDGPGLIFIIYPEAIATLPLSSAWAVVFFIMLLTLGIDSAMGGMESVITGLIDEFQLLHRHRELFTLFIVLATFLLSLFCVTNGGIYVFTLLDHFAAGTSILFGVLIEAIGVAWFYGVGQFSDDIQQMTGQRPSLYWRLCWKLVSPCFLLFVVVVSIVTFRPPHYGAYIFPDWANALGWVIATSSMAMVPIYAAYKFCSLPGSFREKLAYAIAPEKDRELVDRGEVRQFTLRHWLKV
Sequence of Histamine H3 receptor (Q9Y5N1 whole entry): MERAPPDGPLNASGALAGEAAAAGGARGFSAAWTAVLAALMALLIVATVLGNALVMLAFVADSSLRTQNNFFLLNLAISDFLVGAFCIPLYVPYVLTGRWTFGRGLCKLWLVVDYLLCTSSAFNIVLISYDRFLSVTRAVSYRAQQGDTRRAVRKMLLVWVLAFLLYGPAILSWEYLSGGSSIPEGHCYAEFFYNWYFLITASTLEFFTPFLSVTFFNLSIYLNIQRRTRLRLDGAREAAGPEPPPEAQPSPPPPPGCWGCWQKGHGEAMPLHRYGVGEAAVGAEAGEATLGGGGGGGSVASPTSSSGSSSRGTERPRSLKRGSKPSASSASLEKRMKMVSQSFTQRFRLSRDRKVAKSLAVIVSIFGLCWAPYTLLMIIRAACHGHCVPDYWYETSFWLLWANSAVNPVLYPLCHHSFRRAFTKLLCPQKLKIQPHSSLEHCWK
Sequence of cGMP-inhibited 3',5'-cyclic phosphodiesterase 3A (Q14432 whole entry): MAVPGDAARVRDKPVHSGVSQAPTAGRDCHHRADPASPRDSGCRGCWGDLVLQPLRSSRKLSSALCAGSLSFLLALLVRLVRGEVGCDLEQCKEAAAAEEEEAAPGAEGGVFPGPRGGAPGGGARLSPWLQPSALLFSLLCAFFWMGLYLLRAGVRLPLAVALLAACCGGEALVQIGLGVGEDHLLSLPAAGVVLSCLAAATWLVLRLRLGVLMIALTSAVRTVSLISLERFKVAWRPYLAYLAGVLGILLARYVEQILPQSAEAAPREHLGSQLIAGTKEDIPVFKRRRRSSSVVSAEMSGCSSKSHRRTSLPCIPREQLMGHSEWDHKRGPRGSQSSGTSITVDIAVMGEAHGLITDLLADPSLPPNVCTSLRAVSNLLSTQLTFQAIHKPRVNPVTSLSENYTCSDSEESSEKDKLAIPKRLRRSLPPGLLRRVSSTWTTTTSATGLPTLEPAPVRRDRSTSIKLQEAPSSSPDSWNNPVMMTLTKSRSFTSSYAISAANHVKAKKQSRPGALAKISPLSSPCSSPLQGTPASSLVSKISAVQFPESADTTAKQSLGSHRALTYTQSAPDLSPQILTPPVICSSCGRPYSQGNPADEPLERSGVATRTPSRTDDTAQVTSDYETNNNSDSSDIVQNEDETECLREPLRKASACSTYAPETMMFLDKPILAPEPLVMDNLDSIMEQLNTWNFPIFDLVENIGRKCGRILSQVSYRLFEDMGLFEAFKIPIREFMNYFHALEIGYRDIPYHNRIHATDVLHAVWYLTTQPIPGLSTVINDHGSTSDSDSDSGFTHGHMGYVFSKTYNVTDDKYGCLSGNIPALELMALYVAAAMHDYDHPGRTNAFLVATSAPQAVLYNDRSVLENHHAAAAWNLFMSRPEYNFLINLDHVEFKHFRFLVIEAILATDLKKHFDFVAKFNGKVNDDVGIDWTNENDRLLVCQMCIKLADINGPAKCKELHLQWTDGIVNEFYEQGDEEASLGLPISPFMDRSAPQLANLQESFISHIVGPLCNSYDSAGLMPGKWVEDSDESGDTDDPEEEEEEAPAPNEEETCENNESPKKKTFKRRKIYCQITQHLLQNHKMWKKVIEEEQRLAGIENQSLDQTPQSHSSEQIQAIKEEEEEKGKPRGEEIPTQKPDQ

| Compound | AC50 [1] [µM] | AC50 (B2 bradykinin receptor) [µM] | AC50 [2] [µM] | AC50 [3] [µM] | AC50 [4] [µM] | AC50 [5] [µM] | AC50 (Glucocorticoid receptor) [µM] | AC50 [6] [µM] | AC50 (Thromboxane A2 receptor) [µM] | AC50 [7] [µM] | AC50 [8] [µM] | AC50 (Histamine H3 receptor) [µM] |
| --- | --- | --- | --- | --- | --- | --- | --- | --- | --- | --- | --- | --- |
| C[N@+]1(CCF)[C@@H]2CC[C@H]1C[C@@H](OC(=O)C(O)(c1ccccc1)c1ccccc1)C2 | > 30 | > 30 | > 30 | > 30 | > 30 | > 30 | > 30 | 26 | > 30 | > 30 | > 30 | > 30 |
| COc1ccc2nc3cc(Cl)ccc3c(Nc3cc(CN4CCCC4)c(O)c(CN4CCCC4)c3)c2n1 [PYRONARIDINE] | > 30 | > 30 | > 30 | > 30 | > 30 | > 30 | > 30 | 15 | > 30 | 11 | 5.7 | > 30 |

The next lines start with the values.

| AC50 [1] [µM] | AC50 (B2 bradykinin receptor) [µM] | AC50 [2] [µM] | AC50 [3] [µM] | AC50 [4] [µM] | AC50 [5] [µM] | AC50 (Glucocorticoid receptor) [µM] | AC50 [6] [µM] | AC50 (Thromboxane A2 receptor) [µM] | AC50 [7] [µM] | AC50 [8] [µM] | AC50 (Histamine H3 receptor) [µM] | Compound |
| --- | --- | --- | --- | --- | --- | --- | --- | --- | --- | --- | --- | --- |
| 4.6 | > 30 | > 30 | > 30 | > 30 | > 30 | > 30 | > 30 | > 30 | > 30 | > 30 | > 30 | CCN(CC)C(=O)Nc1ccc(OCC(O)CNC(C)(C)C)c(C(C)=O)c1 (stereo not given) [CELIPROLOL] |
| > 30 | > 30 | > 30 | > 30 | > 30 | > 30 | > 30 | > 30 | > 30 | > 30 | > 30 | > 30 | NC1CCN(c2nc3c(cc2F)c(=O)c(C(=O)O)cn3-c2ccc(F)cc2F)C1 (stereo not given) [TOSUFLOXACIN] |
| > 30 | > 9.99 | > 30 | > 30 | > 30 | > 30 | 0.007 | > 30 | > 30 | 21.3 | 30 | > 30 | CCCCCC(=O)O[C@]1(C(C)=O)CC[C@H]2[C@@H]3CCC4=CC(=O)CC[C@]4(C)[C@H]3CC[C@@]21C [HYDROXYPROGESTERONE CAPROATE] |
